# From ChEMBL document CHEMBL1201862, “PubChem BioAssay data set” (2004)
# Active and inactive are the calls of the source.
# Columns and labels:
# [1] = target: T1, Orexin/Hypocretin receptor type 1 (Homo sapiens, UniProt O43613); assay: (§1) Fluorescence-based cell-based high throughput dose response assay for antagonists of the orexin 1 receptor (OX1R; HCRTR1). [Related pubchem assays (depositor defined):AID434989, AID435008, AID463079, AID485270, AID492963, AID492964, AID492965, AID493232, AID504717, AID504718]; assay type: functional
# T1 sequence (O43613 whole entry): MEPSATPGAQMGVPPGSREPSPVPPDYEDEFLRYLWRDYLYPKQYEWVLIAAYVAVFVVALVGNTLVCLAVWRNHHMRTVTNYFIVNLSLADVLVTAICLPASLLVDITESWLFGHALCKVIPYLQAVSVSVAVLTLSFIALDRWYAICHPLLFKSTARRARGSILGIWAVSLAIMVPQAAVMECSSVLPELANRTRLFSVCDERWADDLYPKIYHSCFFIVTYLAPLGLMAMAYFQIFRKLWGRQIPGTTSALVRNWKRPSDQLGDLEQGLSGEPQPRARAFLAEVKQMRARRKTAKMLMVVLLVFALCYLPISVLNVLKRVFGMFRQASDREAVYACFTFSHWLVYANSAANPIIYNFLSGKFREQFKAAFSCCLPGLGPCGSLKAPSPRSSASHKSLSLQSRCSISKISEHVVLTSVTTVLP
# [2] = target: T2, Orexin receptor type 2 (Homo sapiens, UniProt O43614); assay: Counterscreen assay for antagonists of the orexin 1 receptor (OX1R; HCRTR1): Fluorescence-based cell-based dose response assay for antagonists of the orexin 2 receptor (OX2R; HCRTR2), run by assay provider.; assay type: functional
# T2 sequence (O43614 whole entry): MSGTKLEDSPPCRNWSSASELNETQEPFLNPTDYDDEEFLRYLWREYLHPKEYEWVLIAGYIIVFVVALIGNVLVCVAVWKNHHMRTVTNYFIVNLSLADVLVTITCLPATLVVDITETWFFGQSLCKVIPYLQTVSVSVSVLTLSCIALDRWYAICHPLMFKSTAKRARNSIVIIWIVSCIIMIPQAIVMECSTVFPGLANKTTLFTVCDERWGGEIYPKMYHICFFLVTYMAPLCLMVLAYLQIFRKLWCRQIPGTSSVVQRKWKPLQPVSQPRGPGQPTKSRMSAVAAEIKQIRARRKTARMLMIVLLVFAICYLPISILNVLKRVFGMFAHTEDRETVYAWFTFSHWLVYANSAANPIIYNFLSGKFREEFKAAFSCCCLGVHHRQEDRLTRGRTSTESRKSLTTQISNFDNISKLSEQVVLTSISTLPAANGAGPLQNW
# [3] = tested on: CHO-K1; assay: (§2) Counterscreen for antagonists of the orexin 1 receptor (OX1R; HCRTR1): Homogeneous time resolved fluorescence (HTRF)-based cell-based dose response assay to identify antagonists of the parental CHO-K1 cell line. [Related pubchem assays (depositor defined):AID434989, AID435008, AID463079, AID485270, AID492963, AID492964, AID492965, AID493232, AID504699, AID504701]; assay type: functional; conditions: Cricetulus griseus
# [4] = target: T1, Orexin/Hypocretin receptor type 1; assay: as §1, with “Homogeneous Time Resolved Fluorescence (HTRF)-based” for “Fluorescence-based”; assay type: functional
# [5] = as §2, with “Fluorescence-based” for “Homogeneous time resolved fluorescence (HTRF)-based”, “cell-based high throughput” for “cell-based”, “CHO” for “CHO-K1”; assay type: functional
# [6] = target: T2, Orexin receptor type 2; assay: Counterscreen assay for antagonists of the orexin 1 receptor (OX1R; HCRTR1): Homogeneous Time Resolved Fluorescence (HTRF)-based cell-based dose response assay for antagonists of the orexin 2 receptor (OX2R; HCRTR2), run by assay provider.; assay type: functional
# [7] = tested on: Candida albicans; assay: Candida growth effect without fluconazole – C. albicans CaCi-2, dry powder, counter-screen for antifungal drug resistance project, dose response (AID 488802); assay type: functional, organism-based
# [8] = tested on: NIH3T3; assay: mammalian cell viability counter-check – Alamar Blue, fluconazole, dry powder, cytotoxicity control for antifungal drug resistance project, dose response (AID 488809); assay type: functional, cell-based; conditions: Mus musculus
# [9] = target: T3, Caspase-3 (Homo sapiens, UniProt P42574); assay: SAR Analysis of small molecule inhibitors of Sentrin-specific proteases (SENPs) using a Caspase-3 Selectivity assay. [Related pubchem assays (depositor defined):AID2540, AID2599, AID434973, AID489001]; assay type: functional
# T3 sequence (P42574 whole entry): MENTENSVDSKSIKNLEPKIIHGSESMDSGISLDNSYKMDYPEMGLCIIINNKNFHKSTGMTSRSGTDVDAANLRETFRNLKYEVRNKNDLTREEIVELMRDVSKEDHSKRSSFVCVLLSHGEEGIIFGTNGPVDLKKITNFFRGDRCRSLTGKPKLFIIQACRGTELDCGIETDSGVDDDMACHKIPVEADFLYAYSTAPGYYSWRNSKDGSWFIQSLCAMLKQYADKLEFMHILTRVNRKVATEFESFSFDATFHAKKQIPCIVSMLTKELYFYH
# [10] = target: T4, Sentrin-specific protease 6 (Homo sapiens, UniProt Q9GZR1); assay: inhibition of human SENP6 catalytic domain – biochemical, luminescence, set 2, SAR follow-up (AID 588598); assay type: functional
# T4 sequence (Q9GZR1 whole entry): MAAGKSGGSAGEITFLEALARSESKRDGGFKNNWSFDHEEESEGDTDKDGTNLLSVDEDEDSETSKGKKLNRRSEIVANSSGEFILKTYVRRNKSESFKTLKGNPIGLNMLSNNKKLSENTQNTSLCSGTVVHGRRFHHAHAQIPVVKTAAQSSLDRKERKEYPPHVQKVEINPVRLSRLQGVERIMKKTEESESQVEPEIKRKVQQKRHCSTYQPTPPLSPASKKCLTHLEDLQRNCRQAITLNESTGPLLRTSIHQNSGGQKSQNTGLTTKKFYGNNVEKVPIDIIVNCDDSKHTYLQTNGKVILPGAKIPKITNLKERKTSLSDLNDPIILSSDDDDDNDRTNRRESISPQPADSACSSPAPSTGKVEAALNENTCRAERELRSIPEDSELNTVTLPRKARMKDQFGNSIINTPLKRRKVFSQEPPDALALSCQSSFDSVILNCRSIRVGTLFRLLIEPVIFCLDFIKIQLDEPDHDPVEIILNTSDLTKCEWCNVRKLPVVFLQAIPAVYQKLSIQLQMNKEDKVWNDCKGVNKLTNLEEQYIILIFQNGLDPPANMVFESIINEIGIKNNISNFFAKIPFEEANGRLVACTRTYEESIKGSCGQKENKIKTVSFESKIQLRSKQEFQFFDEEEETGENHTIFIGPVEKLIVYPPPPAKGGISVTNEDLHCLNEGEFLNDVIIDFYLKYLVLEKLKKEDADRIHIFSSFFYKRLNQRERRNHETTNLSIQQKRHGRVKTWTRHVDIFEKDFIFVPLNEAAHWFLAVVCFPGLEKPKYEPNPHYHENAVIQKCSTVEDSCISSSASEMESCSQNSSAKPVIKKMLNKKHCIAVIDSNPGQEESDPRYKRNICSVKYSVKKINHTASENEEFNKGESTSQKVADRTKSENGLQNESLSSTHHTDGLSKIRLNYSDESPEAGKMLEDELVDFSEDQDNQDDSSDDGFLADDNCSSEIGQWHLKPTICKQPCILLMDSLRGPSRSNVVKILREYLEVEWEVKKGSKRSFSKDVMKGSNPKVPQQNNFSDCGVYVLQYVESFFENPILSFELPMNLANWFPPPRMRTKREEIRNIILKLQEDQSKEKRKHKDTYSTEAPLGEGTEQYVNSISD
# [11] = target: T4, Sentrin-specific protease 6; assay: SAR Analysis of small molecule inhibitors of Sentrin-specific protease 6 (SENP6) using a Luminescent assay. [Related pubchem assays (depositor defined):AID2582, AID2599]; assay type: functional
# [12] = target: T5, Sentrin-specific protease 8 (Homo sapiens, UniProt Q96LD8); assay: inhibition of sentrin protease 8 – biochemical, luminescence, set 2, SAR follow-up (AID 588601); assay type: functional
# T5 sequence (Q96LD8 whole entry): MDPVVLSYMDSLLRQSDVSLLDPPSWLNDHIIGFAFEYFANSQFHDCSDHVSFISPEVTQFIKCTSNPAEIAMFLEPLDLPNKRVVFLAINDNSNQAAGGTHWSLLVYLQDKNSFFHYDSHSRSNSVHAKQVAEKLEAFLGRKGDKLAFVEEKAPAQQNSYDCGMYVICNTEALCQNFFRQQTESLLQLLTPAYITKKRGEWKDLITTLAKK
# [13] = target: T6, Protein skinhead-1 (Caenorhabditis elegans, UniProt P34707); assay type: functional
# T6 sequence (P34707 whole entry): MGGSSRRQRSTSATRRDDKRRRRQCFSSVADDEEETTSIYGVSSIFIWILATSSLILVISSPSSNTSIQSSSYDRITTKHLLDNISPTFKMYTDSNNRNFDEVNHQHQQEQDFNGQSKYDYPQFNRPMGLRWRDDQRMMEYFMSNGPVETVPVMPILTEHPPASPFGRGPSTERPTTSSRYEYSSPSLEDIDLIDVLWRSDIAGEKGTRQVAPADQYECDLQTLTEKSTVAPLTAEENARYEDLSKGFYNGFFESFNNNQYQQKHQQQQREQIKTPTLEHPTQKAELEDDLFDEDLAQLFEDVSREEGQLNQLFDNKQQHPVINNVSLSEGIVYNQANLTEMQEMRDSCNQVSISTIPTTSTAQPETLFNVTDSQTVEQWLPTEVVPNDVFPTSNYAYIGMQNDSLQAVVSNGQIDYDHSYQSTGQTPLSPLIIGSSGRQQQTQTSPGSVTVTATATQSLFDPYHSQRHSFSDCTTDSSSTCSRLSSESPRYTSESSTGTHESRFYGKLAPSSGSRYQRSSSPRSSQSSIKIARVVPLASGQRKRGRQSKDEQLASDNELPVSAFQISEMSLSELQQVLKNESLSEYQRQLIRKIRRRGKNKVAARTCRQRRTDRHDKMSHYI
# [14] = target: T7, Sentrin-specific protease 7 (Homo sapiens, UniProt Q9BQF6); assay: inhibition of human SENP7 cleavage activity – biochemical, luminescence, SAR follow-up (AID 504497); assay type: functional
# T7 sequence (Q9BQF6 whole entry): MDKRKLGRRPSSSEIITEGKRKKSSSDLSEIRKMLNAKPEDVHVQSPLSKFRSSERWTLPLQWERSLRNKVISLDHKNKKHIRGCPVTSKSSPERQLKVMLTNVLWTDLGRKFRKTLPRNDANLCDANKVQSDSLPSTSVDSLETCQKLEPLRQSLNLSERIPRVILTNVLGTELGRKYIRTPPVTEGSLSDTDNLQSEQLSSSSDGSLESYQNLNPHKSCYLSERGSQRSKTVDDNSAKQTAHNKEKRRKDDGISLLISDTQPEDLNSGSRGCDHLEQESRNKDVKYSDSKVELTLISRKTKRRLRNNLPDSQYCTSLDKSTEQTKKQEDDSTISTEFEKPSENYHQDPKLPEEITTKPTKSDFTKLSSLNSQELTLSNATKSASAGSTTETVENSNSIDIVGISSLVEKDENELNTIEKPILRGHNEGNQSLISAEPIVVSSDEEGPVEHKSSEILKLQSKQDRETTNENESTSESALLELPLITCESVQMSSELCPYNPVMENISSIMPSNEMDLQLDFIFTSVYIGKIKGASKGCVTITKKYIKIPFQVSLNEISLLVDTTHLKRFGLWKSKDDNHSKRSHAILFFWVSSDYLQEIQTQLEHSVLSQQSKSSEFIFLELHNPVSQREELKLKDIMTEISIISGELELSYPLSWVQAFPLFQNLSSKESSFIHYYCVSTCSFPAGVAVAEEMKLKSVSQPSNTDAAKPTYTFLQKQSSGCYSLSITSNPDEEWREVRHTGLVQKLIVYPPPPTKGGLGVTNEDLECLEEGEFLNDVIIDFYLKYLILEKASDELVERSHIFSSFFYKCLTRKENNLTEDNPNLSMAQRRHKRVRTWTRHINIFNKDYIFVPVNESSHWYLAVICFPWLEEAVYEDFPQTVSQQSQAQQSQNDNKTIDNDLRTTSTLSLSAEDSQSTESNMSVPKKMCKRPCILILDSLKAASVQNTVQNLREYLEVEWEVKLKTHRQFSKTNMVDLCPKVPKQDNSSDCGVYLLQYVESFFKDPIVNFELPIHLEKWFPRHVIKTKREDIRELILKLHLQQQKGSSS
# [15] = target: T7, Sentrin-specific protease 7; assay: inhibition of human SENP7 cleavage activity – biochemical, luminescence, set 2, SAR follow-up (AID 588600); assay type: functional
# [16] = target: T3, Caspase-3; assay: inhibition of recombinant caspase-3 activity – biochemical, luminescence, set 2, selectivity assay for SENP protease inhibitor project, SAR follow-up (AID 588599); assay type: functional
# [17] = target: T5, Sentrin-specific protease 8; assay: inhibition of human SENP8 cleavage activity – biochemical, luminescence, SAR follow-up (AID 504501); assay type: functional
# [18] = target: Cytochrome P450 2D6 (Homo sapiens, UniProt P10635);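 further: CYP2D6 member of a cytochrome P450 panel assay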
# Sequence of Cytochrome P450 2D6 (P10635 whole entry): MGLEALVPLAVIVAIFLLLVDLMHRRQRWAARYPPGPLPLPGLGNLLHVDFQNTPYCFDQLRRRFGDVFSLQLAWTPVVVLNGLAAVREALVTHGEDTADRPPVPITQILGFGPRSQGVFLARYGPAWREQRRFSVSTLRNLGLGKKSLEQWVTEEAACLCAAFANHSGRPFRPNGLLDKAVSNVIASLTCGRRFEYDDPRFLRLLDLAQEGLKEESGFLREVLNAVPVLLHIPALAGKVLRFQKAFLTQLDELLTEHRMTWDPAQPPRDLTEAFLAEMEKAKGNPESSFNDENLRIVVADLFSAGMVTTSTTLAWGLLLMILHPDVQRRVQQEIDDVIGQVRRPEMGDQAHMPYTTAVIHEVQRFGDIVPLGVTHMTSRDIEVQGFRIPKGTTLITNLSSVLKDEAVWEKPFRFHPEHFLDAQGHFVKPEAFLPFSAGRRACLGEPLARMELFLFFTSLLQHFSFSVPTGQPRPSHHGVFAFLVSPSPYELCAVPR
# [19] = target: CAAX prenyl protease 2 (Saccharomyces cerevisiae S288c, UniProt Q03530); assay: inhibition of Rce1p peptide cleavage – biochemical, plate reader, dry powder retest, dose response (AID 588851)
# Sequence of CAAX prenyl protease 2 (Q03530 whole entry): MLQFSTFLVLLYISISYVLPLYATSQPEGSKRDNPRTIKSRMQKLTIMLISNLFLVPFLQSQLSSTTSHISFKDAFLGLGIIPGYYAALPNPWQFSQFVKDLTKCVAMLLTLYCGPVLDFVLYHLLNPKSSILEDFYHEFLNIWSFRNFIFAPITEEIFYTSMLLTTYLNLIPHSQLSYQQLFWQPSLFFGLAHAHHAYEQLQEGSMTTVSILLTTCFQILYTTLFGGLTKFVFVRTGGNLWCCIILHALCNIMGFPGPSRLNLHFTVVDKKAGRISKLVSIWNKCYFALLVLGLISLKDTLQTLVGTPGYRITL
compound,measurement,setting,value
Cc1nn(C)c(C)c1/N=C/c1c(O)ccc2ccccc12,IC50,[1],31.2 µM (inactive)
same,IC50,[2],> 88.8 µM (inactive)
same,IC50,[3],> 66.2 µM (inactive)
same,IC50,[4],3.76 µM (active)
same,IC50,[5],> 49.8 µM (inactive)
same,IC50,[6],> 50 µM (inactive)
CC1CCN(C(=O)Cn2c3ccccc3c3nc4n(c(=O)c32)CCCS4)CC1,AC50,[7],122 µM (active)
same,AC50,[8],> 260 µM (inactive)
C(=C\c1nc(-c2cccnc2)no1)/c1ccccc1,IC50,[9],6.2 µM (active)
same,IC50,[10],8.23 µM (active)
same,IC50,[11],21 µM (active)
same,IC50,[12],9.69 µM (active)
same,IC50,[13],49 µM (active)
same,IC50,[14],5.3 µM (active)
same,IC50,[15],8.26 µM (active)
same,IC50,[16],9.23 µM (active)
same,IC50,[17],23 µM (active)
Cc1ccc(NC(=O)CCc2ccc(S(=O)(=O)NC3CCCCC3)cc2)cc1,AC50,[18],11.2 µM (inconclusive)
same,AC50,[19],11 µM (active)
